According to BindingDB's records for doi:10.1016/j.bmcl.2006.04.011 (Ambrilia Biopharma, 2006):

What follows are compounds tested against T1, Dimer of Gag-Pol polyprotein [501-599] (Human immunodeficiency virus 1, UniProt P03367) (assay: Protease Inhibition Assay). Conditions: not given.
T1 construct: 501-599
Experimental: HIV-1 protease activity was measured by a continuous fluorometric assay. The proteolytic activity can be monitored by the increase in fluorescence intensity, and the protease products were analyzed by HPLC. IC50 values were determined from a dose-response curve, whereas Ki values were obtained by fitting initial rates to a tight-binding inhibition equation.

SMILES	IC50	Ki
CC(C)CN(C(CO)CCCCNC(=O)[C@@H](NC(=O)OCc1ccccn1)C(c1ccccc1)c1ccccc1)S(=O)(=O)c1ccc(N)cc1 (stereo partly drawn) [pyridin-2-ylmethyl N-[(1S)-1-{[(5R)-5-[(4-aminobenzene)(2-methylpropyl)sulfonamido]-6-hydroxyhexyl]carbamoyl}-2,2-diphenylethyl]carbamate]	0.12 nM	0.4 nM
CC(C)CN(C(CO)CCCCNC(=O)[C@@H](NC(=O)OCc1cccnc1)C(c1ccccc1)c1ccccc1)S(=O)(=O)c1ccc(N)cc1 (stereo partly drawn) [pyridin-3-ylmethyl N-[(1S)-1-{[(5R)-5-[(4-aminobenzene)(2-methylpropyl)sulfonamido]-6-hydroxyhexyl]carbamoyl}-2,2-diphenylethyl]carbamate]	0.48 nM	0.36 nM
CC(C)CN(C(CO)CCCCNC(=O)[C@@H](NC(=O)OCc1ccncc1)C(c1ccccc1)c1ccccc1)S(=O)(=O)c1ccc(N)cc1 (stereo partly drawn) [pyridin-4-ylmethyl N-[(1S)-1-{[(5R)-5-[(4-aminobenzene)(2-methylpropyl)sulfonamido]-6-hydroxyhexyl]carbamoyl}-2,2-diphenylethyl]carbamate]	0.39 nM	0.02 nM
CC(C)CN(C(CO)CCCCNC(=O)[C@@H](NC(=O)OC(C)(C)C)C(c1ccccc1)c1ccccc1)S(=O)(=O)c1ccc(N)cc1 (stereo partly drawn) [tert-butyl N-[(1S)-1-{[(5R)-5-[(4-aminobenzene)(2-methylpropyl)sulfonamido]-6-hydroxyhexyl]carbamoyl}-2,2-diphenylethyl]carbamate]	0.4 nM	0.5 nM

Same assay, conditions: pH 4.7; 30 °C

SMILES	IC50
COC(=O)N[C@@H](CCc1ccccc1)C(=O)NCCCCC(CO)N(CC(C)C)S(=O)(=O)c1ccc(N)cc1 (stereo partly drawn) [methyl N-[(1S)-1-{[(5R)-5-[(4-aminobenzene)(2-methylpropyl)sulfonamido]-6-hydroxyhexyl]carbamoyl}-3-phenylpropyl]carbamate]	40 nM
COC(=O)N[C@H](C(=O)NCCCCC(CO)N(CC(C)C)S(=O)(=O)c1ccc(N)cc1)c1ccccc1 (stereo partly drawn) [methyl N-[(S)-{[(5R)-5-[(4-aminobenzene)(2-methylpropyl)sulfonamido]-6-hydroxyhexyl]carbamoyl}(phenyl)methyl]carbamate]	> 300 nM
